Literature values in patent US20240009325A1 (PriZm, LLC, priority 2022, published 2024).
“Also recorded” adds a separate entry of the source.

Tests used:
animal models = conditions: mice not neurologically affected; cited from earlier work
MCT8 deficient children = conditions: cited from earlier work; for high blood / serum T3 / neuropsychomotor deficit / neurological symptoms: MCT8 deficient patients
mice deficient in MCT8 = conditions: cited from earlier work; for cell entry in absence of MCT8: Mct8 deficient mice
D1 = conditions: cited from earlier work

Structure (SMILES) | peripheral and central abnormalities (animal models) | high blood / serum T3 (MCT8 deficient children) | neuropsychomotor deficit / neurological symptoms (MCT8 deficient children) | T4 serum levels (MCT8 deficient children; clinical trial, Groeneweg et al. 2019) | cell entry in absence of MCT8 (mice deficient in MCT8) | D1 (D1) | hypermetabolism and nutrition (MCT8 deficient children; 4 MCT8 deficient children, compassionate basis) | suppressive effect on TSH (mice deficient in MCT8; MCT8 deficient vs normal mice)
O=C(O)Cc1cc(I)c(Oc2ccc(O)c(I)c2)c(I)c1 [TRIAC, triiodothyroacetic acid] | able to restore some | reduced | no evidence for improvement | significantly reduce | enter cells independent of MCT8 | increases |  | 
O=C(O)CCc1cc(I)c(Oc2ccc(O)cc2)c(I)c1 [DITPA, 3,5-diiodothyropropionic acid] | able to restore some | reduction and normalization; also recorded: reduced | not the neuropsychomotor deficit; also recorded: no evidence for improvement |  | enter cells independent of MCT8 |  | ameliorating | equal suppressive effect
O=C(O)Cc1cc(I)c(Oc2cc(I)c(O)c(I)c2)c(I)c1 [TETRAC] | able to restore some |  |  |  |  |  |  | 
Cc1cc(OCC(=O)O)cc(C)c1Cc1ccc(O)c(C(C)C)c1 [Sobetirome] | able to restore some |  |  |  |  |  |  | 
